Experimental findings from article PMC9613470, “Diverse MarR bacterial regulators of auxin catabolism in the plant microbiome” (Nature Microbiology, 2022) are described below.

The target in test [1] is Variovorax paradoxus CL14 MarR_73 (Variovorax paradoxus, UniProt C5CSP2). Nature of the test: biochemical. It is filed as binding. The conditions noted are these: ITC, 25 °C, 20 mM HEPES pH 7.4, 50 mM NaCl, 0.5% DMSO, mean of two measurements ± standard error. How it is done: (§1) The coding sequence for each gene can be found in Supplementary Table 10. MarR expression plasmids were synthesized as codon-optimized genes for E. coli expression by BioBasic in the pLIC-His N-term vector (pMCSG7) and transformed into E. coli BL21 (DE3) Gold cells for expression. […] At an OD600 of 0.8, protein expression was induced by the addition of 0.1 mM IPTG and incubation continued overnight. Cells were collected by centrifugation at 4,500 × g for 20 min at 4 °C in a Sorvall (model RC-3B) swinging bucket centrifuge. Cell pellets were resuspended in buffer A (20 mM potassium phosphate, pH 7.4, 50 mM imidazole, 500 mM NaCl), DNase, lysozyme and a Roche Complete EDTA-free protease inhibitor tablet. Resuspended cells were sonicated and clarified via centrifugation at 17,000 × g for 60 min in a Sorvall (model RC-5B) swinging bucket centrifuge. The lysate was applied to a nickel-nitrilotriacetic acid HP column (GE Healthcare) on an Aktaxpress Fast Performance Liquid Chromatography (FPLC) system (Amersham Bioscience) and washed with buffer A. Protein was eluted with buffer B (20 mM potassium phosphate, pH 7.4, 500 mM imidazole, 500 mM NaCl). Fractions containing the protein of interest were combined and passed over a HiLoadTM 16/60 SuperdexTM 200 gel filtration column. Proteins were eluted in S200 buffer (20 mM HEPES, pH 7.4, 300 mM NaCl). Fractions were combined and concentrated for long-term storage at −80 °C.
(§2) All ITC measurements were performed at 25 °C using an Auto-ITC200 microcalorimeter (MicroCal/GE Healthcare). The buffer employed was 20 mM HEPES, pH 7.4, 50 mM NaCl and 0.5% dimethly sulfoxide (DMSO) for protein/ligand binding and 20 mM HEPES, pH 7.4 and 300 mM NaCl for DNA/protein binding experiments. For ligand binding experiments, the calorimetry cell (volume […]) was loaded with MarR wild-type, mutant or homologue protein at a concentration of 50 μM. The syringe was loaded with a ligand concentration of 0.5 or 2 mM. […] A typical injection protocol included a single 0.2 μl first injection followed by 20 1.5 μl injections of the syringe sample into the calorimetry cell. The spacing between injections was kept at 180 s and the reference power at 8 μcal s^−1. […] Two independent ITC measurements were performed for each condition.

In a further test the target is MarR_73 S28A H32A R46A. Nature of the test: ITC IAA binding to MarR_73 S28A H32A R46A mutant. The arrangement: species or system Variovorax paradoxus CL14. The following applies: 25 °C. The procedure:
as §1, with “Fractions were combined and concentrated for long-term storage at −80 °C.” left out

Test [2] deals with A. thaliana ecotype Col-0. Nature of the test: Root growth inhibition assay (primary root elongation). Type of test: in vivo, Arabidopsis thaliana. The following applies: Arabidopsis seedlings with IAA alone, 1 µM IAA. The procedure:
A. thaliana ecotype Col-0 seeds were sterilized in 70% household bleach, 0.2% Tween-20 for 10 min with vigorous agitation and then rinsed 10 times with sterile distilled water. Seeds were stratified at 4 °C in sterile distilled water for 1–2 d. […] Then 8 to 10 plants were aseptically transferred to 12 ×12 cm plates containing 0.5x MS agar medium without sucrose where the medium surface was spread with the bacterial inoculum. […] The plant root tip location was marked on plates after transfer to record the initial root tip position. […] Plates were imaged on a document scanner and primary root elongation was determined using imageJ to quantify the change in root tip position from the initial to the final position.
Individual bacterial strains were grown on agar plates of the media types specified above at 28 °C. […] The optical density at 600 nm (OD600) was measured for each washed strain and normalized to OD600 of 0.01 in 10 mM MgCl2. […]
The 175-member synthetic community (SC185-10V) was prepared as described for the 185-member synthetic community used previously[14] by leaving out the 10 isolates from the genus Variovorax. […] The OD600 of the strains in each well was measured and the strains were combined while normalizing the OD600 of each strain in the pool. […] The OD600 values of the 10 cultures were measured and the 10 strains were pooled while normalizing the OD600 of each strain to the same value. […]

The target of test [3] is Ruegaria pomeroyi MarR_3CDH (Ruegeria pomeroyi, UniProt Q5LTG1). Nature of the test: ITC IAA binding to MarR_3CDH. The conditions noted are these: 25 °C, IadR (MarR_73-like). The procedure:
as §1, §2

The target of test [4] is Bradyrhizobium japonicum MarR_Bj2. Nature of the test: ITC IAA binding to MarR_Bj2. The conditions noted are these: 25 °C, IadR2 (MarR_50-like). How it is done: as §1, with “Fractions were combined and concentrated for long-term storage at −80 °C.” left out

Values joined by “and” are separate entries in the source; they are usually repeats but may differ in a detail not shown here. Equal values may be shown once. “Also recorded” adds a separate entry of the source. Read-outs that look alike come from different tables or passages of the source.

Variovorax paradoxus CL14 MarR_73, sequence (C5CSP2 entry or part of it): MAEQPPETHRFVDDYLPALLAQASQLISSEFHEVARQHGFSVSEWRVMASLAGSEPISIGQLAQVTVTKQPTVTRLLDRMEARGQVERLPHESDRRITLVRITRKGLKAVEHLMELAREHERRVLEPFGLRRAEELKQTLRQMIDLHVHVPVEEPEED
Ruegaria pomeroyi MarR_3CDH, sequence (Q5LTG1 entry or part of it): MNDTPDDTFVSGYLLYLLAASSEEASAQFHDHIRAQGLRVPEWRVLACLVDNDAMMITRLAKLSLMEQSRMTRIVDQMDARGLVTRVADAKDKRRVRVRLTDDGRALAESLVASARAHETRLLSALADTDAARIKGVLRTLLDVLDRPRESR

Take `O=C(O)Cc1c[nH]c2ccccc12` [IAA, indole-3-acetic acid]: the results for the “N (ligand binding stoichiometry to the MarR monomer)” value in test [1] and in test [1] (listed as Indole-3-Acetic Acid (IAA)) were 0.732 ± 0.036 and 0.73 ± 0.04, respectively. Moreover, the Kd in test [1] (KD) is 410 nM and 408 nM; in test [3] (first site, read-out: KD1) it was 237 ± 99 nM; in test [3] (second site, read-out: KD2), 6 nM. Besides, the KD entry at MarR_73 S28A H32A R46A is “No Binding”. The “root growth inhibition (RGI) phenotype” value in test [2] is “severe RGI phenotype”. The N1 in test [3] (first site) is recorded as 0.411 ± 0.012. In test [3] (second site), this compound showed an N2 of 0.216 ± 0.011. The KD1 entry in test [4] is recorded as “did not bind; also recorded: No Binding”.
